Experiments:
DYRK1A [1] = target: DYRK1A (Homo sapiens, UniProt Q13627); assay: DYRK1A kinase activity at various ATP and CX-4945 concentrations (Lineweaver-Burk); type: biochemical; parameters: purchased Life Technologies (Kinase Profiler service); details: ATP 50, 75, 100, 150 and 200 μM; Lineweaver-Burk plots
Experimental: Fig. 2. […] Data are mean±s.d. […] Hydrogen bonds are denoted as dotted black lines, and oxygen, nitrogen and chlorine atoms are indicated as red, blue and green sticks, respectively.
Kinase assays were conducted using the Kinase Profiler services offered by Life Technologies, which utilizes a fluorescence-based immunoassay. Detailed protocols can be found at http://www.lifetechnologies.com/kinaseprofiling. […] All experiments were performed twice.

[2] = system: mnb-overexpressing Drosophila; assay: Eye phenotype in flies overexpressing human Tau with or without mnb (GMR-Gal4); type: in vivo, Drosophila melanogaster; details: feeding with 100 nM, GMR>Tau and GMR>mnb+Tau
Excerpt: The expression of human Tau in Drosophila retinal tissue (GMR>Tau) produced a small rough eye phenotype (GMR>Tau in Fig. 6A and B), as described previously ([Jackson et al., 2002]). […] Pan-neuronal mnb overexpression (elav::synGFP>mnb) caused severe neurogenic defects in both the central and peripheral nervous system during embryogenesis [elav::synGFP>mnb (DMSO) in Fig. 6C]. […] Moreover, the viability of adult flies with the neuronal overexpression of mnb was examined. Pan-neuronal overexpression of mnb caused high rates of mortality in adult flies (∼70%, Fig. 6D).
Fig. 6. CX-4945 rescues neurological and phenotypic defects in an mnb-overexpressing Drosophila model. […] (B) The retinal surface areas were measured on multiple samples (n>10) from each genotype, and average eye sizes were presented as normalized percentages of the DMSO-treated GMR-Gal4 control. […]
Drosophila melanogaster were cultured at 25°C on standard cornmeal medium. […] For defining optimal concentration of chemical inhibitors, 50 embryos of each genotype were raised on drug-containing food (0, 1 nM, 10 nM, 100 nM, 1 µM, 10 µM and 25 µM in 0.05% DMSO) and allowed to develop to adulthood (viability assay and wing vein quantification assay). […] Fly eye sizes were measured on multiple samples (n>10) from each genotype using the National Institutes of Health ImageJ software. […]

DYRK1A [3] = assay: Tau phosphorylation (T212) in the hippocampus of DYRK1A transgenic mouse after oral administration; type: in vivo
Experimental: This mouse model has 50% higher expression of DYRK1A compared with a normal mouse, and increased Tau phosphorylation at T212 in the hippocampus has been well documented ([Ryoo et al., 2007]). Indeed, this phenomenon was also confirmed in our experiment.
Fig. 7. […] (A) Hippocampuses from normal and DYRK1A-overexpressing C57BL/6 mice (n=5 for each) were harvested, and the phosphorylation of Tau was analyzed by western blotting with anti-phosphorylated-Tau (at residue T212; p-Tau) and anti-Tau antibodies. α-Tubulin was also analyzed as a loading control. (B) The phosphorylated and total Tau proteins in panel A were quantified, and the mean amount of each protein was calculated. […] Total cell lysates were prepared and subjected to western blotting with the indicated antibodies. α-Tubulin was also analyzed as a loading control. (D) The phosphorylated and total Tau proteins in panel C were quantified, and the mean amount of each protein across the animals was calculated. Relative ratios of phosphorylated Tau to total Tau were calculated by setting the value from DYRK1A mice that had been treated with DMSO as 100%. […]
DYRK1A transgenic mice with three copies of the human DYRK1A gene were maintained as described previously ([Ahn et al., 2006]). […] The protein concentration was determined using the Bradford protein assay (Bio-Rad). […]

[4] = system: mnb-overexpressing Drosophila; assay: Wing vein (LV5) defect rescue in mnb-overexpressing flies (MS1096-gal4); type: in vivo, Drosophila melanogaster; details: larvae fed for 2 weeks

For `O=C(O)c1ccc2c(c1)nc(Nc1cccc(Cl)c1)c1ccncc12` [CX-4945], the “mode of DYRK1A inhibition” value (DYRK1A [1]) was “ATP-competitive manner”, the “eye defects induced by overexpression of Tau alone or with mnb” value [2] was “significantly mitigated” and the “phosphorylation of Tau (T212) in hippocampus” value (DYRK1A [3]; DYRK1A-overexpressing C57BL/6 mice, 75 mg/kg oral, 30 min) was “remarkably decreased”. The blood-brain barrier penetration (DYRK1A [3]; inferred from hippocampal Tau phosphorylation after oral 75 mg/kg) was “efficiently penetrates the blood-brain barrier” and the “concentration giving apparent rescue of wing (LV5) defect” value [4] was 10 to 100 nM.

Source: PMC5007978, “A chemical with proven clinical safety rescues Down-syndrome-related phenotypes in through DYRK1A inhibition” (Disease Models & Mechanisms, 2016)
